From US20190008961A1, “COMPOUNDS AND METHODS FOR INCREASING TUMOR INFILTRATION BY IMMUNE CELLS” (THE BROAD INSTITUTE, INC., priority 2016, published 2019) come the findings set out here.

In data set [1] the test system is MSC cells. Nature of the data set: RSL3 toxicity in the presence of inhibitors of arachidonic acid metabolic enzymes. Format: cell-based. The conditions noted are these: for RSL3 mediated cell death in MSCs with soluble epoxide hydrolase inhibitors: FIG. 14, TPPU 20 and 80 μM, AUDA and butyl-AUDA 80 μM; for effect on toxicity of RSL3: increasing amounts of RSL3, FIG. 13. The text has this: To investigate the role of RSL3's effects on MSC toxicity, MDA-MSC co-cultures were contacted by compounds that were known inhibitors of arachidonic acid metabolic enzymes.

Data set [2] concerns MSCs and WI-38 fibroblasts. Nature of the data set: viability, Cell Titer Glo, 72 hours. It is filed as cell-based, human. How it is done:
Viability measurements were made to determine whether RSL3 is toxic to MDA cells, MSCs or both. Viability was assessed by seeding cells into 384-well opaque-bottom plates (Corning, Corning N.Y. catalog #3570) then treating them 24 hours later with varying concentrations of RSL3 (added using the pin-transfer instrument CyBi-Well Vario, Cybio, Woburn Mass.) for an additional period of 72 hours. Viable cells remaining after the treatment were quantified using the Cell Titer Glo reagent (Promega, Madison Wis. catalog #G7570) that measures cellular ATP content.
For orientation: Cellular ATP, detected with luciferase, serves as a proxy for viable cell number.

Data set [3] can be described thus: plasma protein binding by equilibrium dialysis, human. Format: in vitro ADME. As to conditions: 5 μM. On the procedure: Plasma Protein Binding. Plasma protein binding was determined by equilibrium dialysis using the Rapid Equilibrium Dialysis (RED) device (Pierce Biotechnology, Rockford, Ill.) for both human and mouse plasma. Each compound was prepared in duplicate at 5μM in plasma (0.95% acetonitrile, 0.05% DMSO) and added to one side of the membrane (200 μL) with PBS pH 7.4 added to the other side (350 μL). Compounds were incubated at 37° C. for 5 hours with a 350-rpm orbital shake. After incubation, samples were analyzed by UPLC-MS (Waters, Milford, Mass.) with compounds detected by SIR detection on a single quadrupole mass spectrometer.
For orientation: Equilibrium dialysis compares concentrations on both sides of a semipermeable membrane.

A short description of data set [4]: plasma stability, human. It is filed as in vitro ADME. How it is done:
(§1) Plasma Stability. Plasma stability was determined at 37° C. at 5 hours in both human and mouse plasma. Each compound was prepared in duplicate at 5 μM in plasma diluted 50/50 (v/v) with PBS pH 7.4 (0.95% acetonitrile, 0.05% DMSO). Compounds were incubated at 37° C. for 5 hours with a 350-rpm orbital shake with time points taken at 0 hours and 5 hours. Samples were analyzed by UPLC-MS (Waters, Milford, Mass.) with compounds detected by SIR detection on a single quadrupole mass spectrometer.

Data set [5] can be described thus: microsomal stability, human. Format: in vitro ADME. On the procedure: (§2) Microsomal Stability. Microsomal stability was determined at 37° C. at 60 minutes in both human and mouse microsomes. Each compound was prepared in duplicate at 1 μM with 0.3 mg/mL microsomes in PBS pH 7.4 (1% DMSO). Compounds were incubated at 37° C. for 60 minutes with a 350-rpm orbital shake with time points taken at 0 minutes and 60 minutes. Samples were analyzed by UPLC-MS (Waters, Milford, Mass.) with compounds detected by SIR detection on a single quadrupole mass spectrometer.

A short description of data set [6]: plasma stability, mouse. It is filed as in vitro ADME. How it is done: as §1
Data set [7] in a line: microsomal stability, mouse. Format: in vitro ADME. How it is done:
as §2

Data set [8] concerns MSC-shGPX cells. Description: Zileuton rescue of viability in GPX4 knockdown MSCs. Format: cell-based. As to conditions: increasing Zileuton. On the procedure:
In a knockdown GPX4 experiment in MSCs, increasing amounts of Zileuton were added to MSC-shLacZ cells as a control and to MSC-shGPX cells growing in 384-well plates and their viability was measured after 5 days of growth (see FIG. 15).

SMILES strings stand for the structures.

For `O=C(O)CCCCCCCCCCCNC(=O)NC12CC3CC(CC(C3)C1)C2` [AUDA], the “RSL3 mediated cell death in MSCs with soluble epoxide hydrolase inhibitors” value in data set [1] is recorded as “increase in RSL3 mediated cell death”.
Turning to `COc1ccc2c(c1)c(CC(=O)O)c(C)n2C(=O)c1ccc(Cl)cc1` [Indomethacin], the “effect on toxicity of RSL3” value in data set [1] was “little impact”.
As for `CC(C)c1ccc2c(c1)c(SC(C)(C)C)c(CC(C)(C)C(=O)O)n2Cc1ccc(Cl)cc1` [MK886], the “effect on toxicity of RSL3” value in data set [1] is “lessened the toxicity of RSL3”.
On to `COc1ccc(N(C(=O)CCl)C(C(=O)NCCc2ccccc2)c2cccs2)cc1Cl` (stereo not shown) [ML162], for which the “stromal cell death, potency relative to RSL3” value in data set [2] is “lower potencies than that of RSL3”.
As for `c1ccc2c(c1)SCc1c-2[nH]c2ccccc12` [PD146176], the “effect on toxicity of RSL3” value in data set [1] is “lessened the toxicity of RSL3”.
For the molecule `COC(=O)c1ccc([C@@H]2c3[nH]c4ccccc4c3C[C@@H](C(=O)OC)N2C(=O)CCl)cc1` [RSL3], the “potency in inhibiting viability of stromal cells compared with MDA cancer cells or HUVEC endothelial cells” value in data set [2] (72 hours treatment) is greater than 10 fold. Further, the “Plasma Binding Protein (5 h)” value in data set [3] is given as 98.2%. Also, the “Plasma Stability (5 h)” value was 47% in data set [4] (Human, 37° C., 5 μM) and less than 1% in data set [6] (Mouse, 37° C., 5 μM). Also, the “stability in human plasma, in words” value in data set [4] (human) is “modest stability”. Besides, the “Liver Microsome Stability (1 h)” value in data set [5] (Human, 1 μM, 0.3 mg/mL microsomes) is recorded as 32.7%; in data set [7] (Mouse, 1 μM, 0.3 mg/mL microsomes), less than 1%. Also, in data set [5] (human), the “stability in human liver microsomal assay, in words” value is listed as “modest stability”. For the same molecule, the “stability in murine plasma, in words” value in data set [6] (murine) is “little stability”. Moreover, the “stability in murine liver microsomal assay, in words” value in data set [7] (murine) was “little stability”.
For `CCC(=O)N1CCC(NC(=O)Nc2ccc(OC(F)(F)F)cc2)CC1` [TPPU], in data set [1], the “RSL3 mediated cell death in MSCs with soluble epoxide hydrolase inhibitors” value is “increase in RSL3 mediated cell death” and the “effect on toxicity of RSL3” value is on record as “enhanced RSL3 effects”.
For `CC(c1cc2ccccc2s1)N(O)C(N)=O` (stereo not shown) [Zileuton], the “amount of MSC-shGPX cells that survived” value in data set [8] (5 days of growth) is “increased with higher amounts of Zileuton”. Further, the “viability of control MSC-shLacZ cells” value in data set [8] (FIG. 15) is recorded as “no effect”. For the same molecule, in data set [1], the “rescue of stromal cells from death by GPX4 inhibition” value is “rescued” and the “effect on toxicity of RSL3” value is listed as “lessened the toxicity of RSL3”.
As for `CCCCS(=N)(=O)CCC(N)C(=O)O` (stereo not shown) [buthionine sulfoximine, S-n-butyl homocysteine sulfoximine], the “stromal cell death, potency relative to RSL3” value in data set [2] is listed as “lower potencies than that of RSL3”.
With `CCCCOC(=O)CCCCCCCCCCCNC(=O)NC12C[C@H]3C[C@@H](C1)C[C@@H](C2)C3` [butyl-AUDA], the “RSL3 mediated cell death in MSCs with soluble epoxide hydrolase inhibitors” value in data set [1] is reported as “increase in RSL3 mediated cell death”.
In the case of `COc1cccc2c1C(=O)c1c(O)c3c(c(O)c1C2=O)C[C@@](O)(C(=O)CO)C[C@@H]3O[C@H]1C[C@H](N)[C@H](O)[C@H](C)O1` [doxorubicin], the “sensitivity of MSCs and fibroblasts to the drug” value in data set [2] (viability, FIG. 4B) is recorded as “did not show enhanced sensitivity”.
As to `CCOC(=O)c1ccc(NC2CCCCC2)c(N)c1` [ferrostatin], the “rescue of stromal cells from death by GPX4 inhibition” value in data set [1] is given as “rescued”.
